Assays:
Homo sapiens = species on record: Homo sapiens; assay: Selectivity ratio of Ki for CB1 receptor (unknown origin) to Ki for CB2 receptor (unknown origin)
Cannabinoid receptor 1 = Cannabinoid receptor 1 (Homo sapiens, UniProt P21554); assay: Binding affinity to CB1 receptor (unknown origin)
Cannabinoid receptor 2 = Cannabinoid receptor 2 (Homo sapiens, UniProt P34972); assay: Binding affinity to CB2 receptor (unknown origin)
Cannabinoid receptor 2, sequence (P34972 whole entry): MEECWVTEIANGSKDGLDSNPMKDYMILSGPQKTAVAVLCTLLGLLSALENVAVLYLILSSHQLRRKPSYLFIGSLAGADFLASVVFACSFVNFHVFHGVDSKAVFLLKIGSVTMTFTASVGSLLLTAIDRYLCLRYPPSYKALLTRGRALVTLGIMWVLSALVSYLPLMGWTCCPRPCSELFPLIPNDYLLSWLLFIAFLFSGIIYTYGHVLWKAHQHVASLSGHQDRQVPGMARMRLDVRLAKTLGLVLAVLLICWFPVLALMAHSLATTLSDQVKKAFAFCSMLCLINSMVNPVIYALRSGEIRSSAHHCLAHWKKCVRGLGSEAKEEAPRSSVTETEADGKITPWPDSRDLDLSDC

Cannabinoid receptor 1, sequence (P21554 whole entry): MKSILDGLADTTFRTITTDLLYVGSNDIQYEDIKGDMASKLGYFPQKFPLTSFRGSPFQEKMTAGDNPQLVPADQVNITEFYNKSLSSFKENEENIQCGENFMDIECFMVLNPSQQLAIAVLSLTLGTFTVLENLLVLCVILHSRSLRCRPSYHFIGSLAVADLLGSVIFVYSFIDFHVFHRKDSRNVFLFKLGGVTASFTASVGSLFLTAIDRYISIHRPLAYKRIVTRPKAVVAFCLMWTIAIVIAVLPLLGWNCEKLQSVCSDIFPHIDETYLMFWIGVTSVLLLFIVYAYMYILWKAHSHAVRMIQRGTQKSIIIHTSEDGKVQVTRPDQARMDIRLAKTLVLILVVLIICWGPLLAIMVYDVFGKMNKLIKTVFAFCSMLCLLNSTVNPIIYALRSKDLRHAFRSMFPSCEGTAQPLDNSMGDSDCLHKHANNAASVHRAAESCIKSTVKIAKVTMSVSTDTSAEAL

| Compound | Ratio Ki (Homo sapiens) | Ki (Cannabinoid receptor 1) | Ki (Cannabinoid receptor 2) |
| --- | --- | --- | --- |
| CCCn1cc(C(=O)c2ccc(C)c3ccccc23)c2ccccc21 | 173 | – | – |
| CN1CCCCC1Cn1cc(C(=O)c2cc([N+](=O)[O-])ccc2I)c2ccccc21 (racemic) | 82 | 280 nM | 3.4 nM |

Source: ChEMBL document CHEMBL2424594, “Contributions of academic laboratories to the discovery and development of chemical biology tools” (J Med Chem, 2013)
